# Data reported in ChEMBL document CHEMBL3797068, “eCF309: a potent, selective and cell-permeable mTOR inhibitor” (Medchemcomm, 2016).
# The source made the active and inactive calls. No cut-off for these calls is given here.
# Legend:
# MCF7 [1] = assay: Cytotoxicity against human MCF7 cells after 5 days by Presto blue reagent-based fluorescence analysis; format: functional, cell-based; settings: for EC50: MCF7, 120 h
# MCF7 [2] = assay: Cytotoxicity against human MCF7 cells assessed as cell viability at 1000 nM after 5 days by Presto blue reagent-based spectrofluorometric analysis; format: functional; settings: MCF7, 120 h, read-out: Activity
# [3] = biological target: T1, Epithelial discoidin domain-containing receptor 1 (Homo sapiens, UniProt Q08345); assay: Inhibition of human DDR1 using (poly [Glu, Tyr] 4:1) as substrate assessed as incorporation of 33P in substrate by [gamma33P] ATP-based kinase assay
# [4] = biological target: T2, Serine/threonine-protein kinase mTOR (Homo sapiens, UniProt P42345); assay: Inhibition of recombinant human mTOR by LanthaScreen Kinase assay
# [5] = biological target: T3, Phosphatidylinositol 4,5-bisphosphate 3-kinase catalytic subunit alpha isoform (Homo sapiens, UniProt P42336); assay: Inhibition of PI3Kalpha (unknown origin) using PIP2 as substrate by HTRF assay
# [6] = biological target: T4, Phosphatidylinositol 4,5-bisphosphate 3-kinase catalytic subunit beta isoform (Homo sapiens, UniProt P42338); assay: Inhibition of PI3Kbeta (unknown origin) using PIP2 as substrate by HTRF assay
# [7] = biological target: T5, Phosphatidylinositol 4,5-bisphosphate 3-kinase catalytic subunit gamma isoform (Homo sapiens, UniProt P48736); assay: Inhibition of PI3Kgamma (unknown origin) using PIP2 as substrate by HTRF assay
# Target sequence in this assay (P48736 whole entry, canonical isoform): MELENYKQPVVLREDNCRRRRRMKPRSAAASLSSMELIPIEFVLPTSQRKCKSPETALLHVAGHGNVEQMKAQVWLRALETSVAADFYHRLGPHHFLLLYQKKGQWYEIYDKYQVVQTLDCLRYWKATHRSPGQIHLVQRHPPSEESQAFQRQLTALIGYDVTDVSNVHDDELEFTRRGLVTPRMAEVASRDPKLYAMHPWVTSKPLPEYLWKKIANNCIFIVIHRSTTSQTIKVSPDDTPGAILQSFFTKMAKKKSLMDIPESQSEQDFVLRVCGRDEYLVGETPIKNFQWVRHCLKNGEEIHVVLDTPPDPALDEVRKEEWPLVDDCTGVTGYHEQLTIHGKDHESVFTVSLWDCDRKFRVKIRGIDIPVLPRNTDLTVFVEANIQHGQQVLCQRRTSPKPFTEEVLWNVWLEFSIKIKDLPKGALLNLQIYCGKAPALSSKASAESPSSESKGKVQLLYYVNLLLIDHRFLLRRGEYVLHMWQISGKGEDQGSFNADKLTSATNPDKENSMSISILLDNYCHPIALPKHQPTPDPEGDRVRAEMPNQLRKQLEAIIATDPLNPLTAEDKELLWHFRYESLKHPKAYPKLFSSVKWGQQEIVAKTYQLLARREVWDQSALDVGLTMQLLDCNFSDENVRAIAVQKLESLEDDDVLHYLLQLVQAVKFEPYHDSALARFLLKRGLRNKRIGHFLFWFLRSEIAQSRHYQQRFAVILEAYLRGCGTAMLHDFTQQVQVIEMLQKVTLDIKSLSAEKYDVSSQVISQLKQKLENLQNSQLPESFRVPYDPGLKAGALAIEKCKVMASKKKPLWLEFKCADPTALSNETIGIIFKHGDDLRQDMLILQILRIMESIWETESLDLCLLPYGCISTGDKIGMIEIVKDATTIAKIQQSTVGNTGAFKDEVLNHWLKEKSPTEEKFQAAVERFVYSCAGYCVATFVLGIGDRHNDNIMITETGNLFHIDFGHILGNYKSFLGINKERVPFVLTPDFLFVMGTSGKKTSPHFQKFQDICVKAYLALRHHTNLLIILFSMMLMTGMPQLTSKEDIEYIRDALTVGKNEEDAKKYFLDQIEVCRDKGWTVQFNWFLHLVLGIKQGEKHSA
# [8] = biological target: T6, Phosphatidylinositol 4,5-bisphosphate 3-kinase catalytic subunit delta isoform (Homo sapiens, UniProt O00329); assay: Inhibition of PI3Kdelta (unknown origin) using PIP2 as substrate by HTRF assay
# T6 sequence (O00329 whole entry): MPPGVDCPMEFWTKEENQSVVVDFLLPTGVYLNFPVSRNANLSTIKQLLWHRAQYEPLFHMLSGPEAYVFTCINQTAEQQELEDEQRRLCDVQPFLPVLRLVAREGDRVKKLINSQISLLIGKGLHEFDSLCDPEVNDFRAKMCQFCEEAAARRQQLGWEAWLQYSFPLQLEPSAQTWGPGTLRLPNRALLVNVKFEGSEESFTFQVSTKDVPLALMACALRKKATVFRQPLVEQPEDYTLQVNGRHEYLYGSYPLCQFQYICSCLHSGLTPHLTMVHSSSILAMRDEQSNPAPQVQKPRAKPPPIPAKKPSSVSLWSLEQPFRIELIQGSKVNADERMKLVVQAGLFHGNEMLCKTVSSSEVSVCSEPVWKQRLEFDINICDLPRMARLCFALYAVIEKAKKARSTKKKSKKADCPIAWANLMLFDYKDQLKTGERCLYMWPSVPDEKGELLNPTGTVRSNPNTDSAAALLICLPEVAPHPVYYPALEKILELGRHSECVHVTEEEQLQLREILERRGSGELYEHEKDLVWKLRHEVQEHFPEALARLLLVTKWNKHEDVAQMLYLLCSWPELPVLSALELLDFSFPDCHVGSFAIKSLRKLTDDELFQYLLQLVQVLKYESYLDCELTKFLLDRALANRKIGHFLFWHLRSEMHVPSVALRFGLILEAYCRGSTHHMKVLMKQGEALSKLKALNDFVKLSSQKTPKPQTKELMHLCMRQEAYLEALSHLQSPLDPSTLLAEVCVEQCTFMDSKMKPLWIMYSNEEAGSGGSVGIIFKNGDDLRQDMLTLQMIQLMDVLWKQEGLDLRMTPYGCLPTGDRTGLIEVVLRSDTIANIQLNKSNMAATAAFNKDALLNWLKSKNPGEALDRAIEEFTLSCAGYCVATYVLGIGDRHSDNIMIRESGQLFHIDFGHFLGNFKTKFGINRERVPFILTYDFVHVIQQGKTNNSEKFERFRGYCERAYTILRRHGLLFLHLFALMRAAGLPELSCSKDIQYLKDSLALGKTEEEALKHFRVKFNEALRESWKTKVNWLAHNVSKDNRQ
# [9] = biological target: T7, DNA-dependent protein kinase catalytic subunit (Homo sapiens, UniProt P78527); assay: Inhibition of human DNA-PK using (poly [Glu, Tyr] 4:1) as substrate assessed as incorporation of 33P in substrate by [gamma33P] ATP-based kinase assay
# MDA-MB-231 [10] = assay: Cytotoxicity against human MDA-MB-231 cells after 5 days by Presto blue reagent-based spectrofluorometric analysis; format: functional, cell-based; settings: MDA-MB-231, 120 h
# [11] = Cytotoxicity against human PC3 cells after 5 days by Presto blue reagent-based spectrofluorometric analysis; format: functional, cell-based; settings: PC-3, 120 h
# MCF7 [12] = assay: Cell cycle arrest in human MCF7 cells assessed as increase in G0/G1 population after 24 hrs by Hoechst 33342 staining-based fluorescence analysis; format: functional
# MDA-MB-231 [13] = assay: Cell cycle arrest in human MDA-MB-231 cells assessed as increase in G0/G1 population after 24 hrs by Hoechst 33342 staining-based fluorescence analysis; format: functional
# [14] = Cell cycle arrest in human PC3 cells assessed as increase in G0/G1 population after 24 hrs by Hoechst 33342 staining-based fluorescence analysis; format: functional; settings: PC-3
# [15] = biological target: Tyrosine-protein kinase Blk (Homo sapiens, UniProt P51451); assay: Inhibition of human BLK using (poly [Glu, Tyr] 4:1) as substrate assessed as incorporation of 33P in substrate by [gamma33P] ATP-based kinase assay
# [16] = biological target: Tyrosine-protein kinase ABL1 (Homo sapiens, UniProt P00519); assay: Inhibition of human ABL using (poly [Glu, Tyr] 4:1) as substrate assessed as incorporation of 33P in substrate by [gamma33P] ATP-based kinase assay
# [17] = biological target: Platelet-derived growth factor receptor alpha (Homo sapiens, UniProt P16234); assay: Inhibition of human PDGFRalpha using (poly [Glu, Tyr] 4:1) as substrate assessed as incorporation of 33P in substrate by [gamma33P] ATP-based kinase assay
# [18] = biological target: Tyrosine-protein kinase Fyn (Homo sapiens, UniProt P06241); assay: Inhibition of human FYN using (poly [Glu, Tyr] 4:1) as substrate assessed as incorporation of 33P in substrate by [gamma33P] ATP-based kinase assay
# [19] = biological target: Mast/stem cell growth factor receptor Kit (Homo sapiens, UniProt P10721); assay: Inhibition of human KIT using (poly [Glu, Tyr] 4:1) as substrate assessed as incorporation of 33P in substrate by [gamma33P] ATP-based kinase assay
# [20] = biological target: Proto-oncogene tyrosine-protein kinase receptor Ret (Homo sapiens, UniProt P07949); assay: Inhibition of human RET using (poly [Glu, Tyr] 4:1) as substrate assessed as incorporation of 33P in substrate by [gamma33P] ATP-based kinase assay
# [21] = biological target: Proto-oncogene tyrosine-protein kinase Src (Homo sapiens, UniProt P12931); assay: Inhibition of human SRC using (poly [Glu, Tyr] 4:1) as substrate assessed as incorporation of 33P in substrate by [gamma33P] ATP-based kinase assay
# [22] = biological target: Tyrosine-protein kinase Yes (Homo sapiens, UniProt P07947); assay: Inhibition of human YES using (poly [Glu, Tyr] 4:1) as substrate assessed as incorporation of 33P in substrate by [gamma33P] ATP-based kinase assay
# [23] = biological target: T3, Phosphatidylinositol 4,5-bisphosphate 3-kinase catalytic subunit alpha isoform; assay: Inhibition of PI3Kalpha (unknown origin) using (poly [Glu, Tyr] 4:1) as substrate assessed as incorporation of 33P in substrate by [gamma33P] ATP-based kinase assay
# [24] = biological target: T4, Phosphatidylinositol 4,5-bisphosphate 3-kinase catalytic subunit beta isoform; assay: Inhibition of PI3Kbeta (unknown origin) using (poly [Glu, Tyr] 4:1) as substrate assessed as incorporation of 33P in substrate by [gamma33P] ATP-based kinase assay
# [25] = biological target: T5, Phosphatidylinositol 4,5-bisphosphate 3-kinase catalytic subunit gamma isoform; assay: Inhibition of PI3Kgamma (unknown origin) using (poly [Glu, Tyr] 4:1) as substrate assessed as incorporation of 33P in substrate by [gamma33P] ATP-based kinase assay
# Target sequence in this assay (P48736 whole entry, canonical isoform): as the sequence (P48736 whole entry, canonical isoform) above
# [26] = biological target: T6, Phosphatidylinositol 4,5-bisphosphate 3-kinase catalytic subunit delta isoform; assay: Inhibition of PI3Kdelta (unknown origin) using (poly [Glu, Tyr] 4:1) as substrate assessed as incorporation of 33P in substrate by [gamma33P] ATP-based kinase assay
# [27] = biological target: T3, Phosphatidylinositol 4,5-bisphosphate 3-kinase catalytic subunit alpha isoform; assay: Inhibition of human PI3Kalpha at 10 uM by kinome profiling method
# [28] = biological target: T2, Serine/threonine-protein kinase mTOR; assay: Inhibition of human mTOR at 10 uM by kinome profiling method
# [29] = biological target: T5, Phosphatidylinositol 4,5-bisphosphate 3-kinase catalytic subunit gamma isoform; assay: Inhibition of human PI3Kgamma at 10 uM by kinome profiling method
# Target sequence in this assay (P48736 whole entry, looked up, canonical isoform): as the sequence (P48736 whole entry, canonical isoform) above
# [30] = biological target: T7, DNA-dependent protein kinase catalytic subunit; assay: Inhibition of human DNA-PK at 10 uM by kinome profiling method
# [31] = biological target: T1, Epithelial discoidin domain-containing receptor 1; assay: Inhibition of human DDR1 at 10 uM by kinome profiling method
# mTORC1 (Homo sapiens) [32] = biological target: T8, mTORC1 (Homo sapiens) (UniProt P42345+Q8N122+Q9BVC4); assay: Inhibition of mTORC1 in human MCF7 cells assessed as reduction in phosphorylated P70S6K preincubated for 30 mins followed by serum stimulation for 1 hr by Western blot analysis; format: cell-based
# mTORC1 (Homo sapiens) [33] = biological target: T8, mTORC1 (Homo sapiens); assay: Inhibition of mTORC1 in human MCF7 cells assessed as reduction in phosphorylated S6 preincubated for 30 mins followed by serum stimulation for 1 hr by Western blot analysis; format: cell-based
# MCF7 [34] = assay: Inhibition of mTORC2 in human MCF7 cells assessed as reduction in phosphorylated AKT level preincubated for 30 mins followed by serum stimulation for 1 hr by Western blot analysis; format: cell-based
# mTORC1 (Homo sapiens) [35] = biological target: T8, mTORC1 (Homo sapiens); assay: Inhibition of mTORC1 in human MCF7 cells assessed as reduction in phosphorylated P70S6K at 30 nM preincubated for 30 mins followed by serum stimulation for 1 hr by Western blot analysis; format: cell-based
# mTORC1 (Homo sapiens) [36] = biological target: T8, mTORC1 (Homo sapiens); assay: Inhibition of mTORC1 in human MCF7 cells assessed as reduction in phosphorylated S6 at 30 nM preincubated for 30 mins followed by serum stimulation for 1 hr by Western blot analysis; format: cell-based
# MCF7 [37] = assay: Inhibition of mTORC2 in human MCF7 cells assessed as reduction in phosphorylated AKT level at 30 nM preincubated for 30 mins followed by serum stimulation for 1 hr by Western blot analysis; format: cell-based
# MCF7 [38] = assay: Cytotoxicity against human MCF7 cells at 0.3 to 1000 nM after 5 days by Presto blue reagent-based spectrofluorometric analysis; format: functional, cell-based
# T1 sequence (Q08345 whole entry, the tested form may be a part): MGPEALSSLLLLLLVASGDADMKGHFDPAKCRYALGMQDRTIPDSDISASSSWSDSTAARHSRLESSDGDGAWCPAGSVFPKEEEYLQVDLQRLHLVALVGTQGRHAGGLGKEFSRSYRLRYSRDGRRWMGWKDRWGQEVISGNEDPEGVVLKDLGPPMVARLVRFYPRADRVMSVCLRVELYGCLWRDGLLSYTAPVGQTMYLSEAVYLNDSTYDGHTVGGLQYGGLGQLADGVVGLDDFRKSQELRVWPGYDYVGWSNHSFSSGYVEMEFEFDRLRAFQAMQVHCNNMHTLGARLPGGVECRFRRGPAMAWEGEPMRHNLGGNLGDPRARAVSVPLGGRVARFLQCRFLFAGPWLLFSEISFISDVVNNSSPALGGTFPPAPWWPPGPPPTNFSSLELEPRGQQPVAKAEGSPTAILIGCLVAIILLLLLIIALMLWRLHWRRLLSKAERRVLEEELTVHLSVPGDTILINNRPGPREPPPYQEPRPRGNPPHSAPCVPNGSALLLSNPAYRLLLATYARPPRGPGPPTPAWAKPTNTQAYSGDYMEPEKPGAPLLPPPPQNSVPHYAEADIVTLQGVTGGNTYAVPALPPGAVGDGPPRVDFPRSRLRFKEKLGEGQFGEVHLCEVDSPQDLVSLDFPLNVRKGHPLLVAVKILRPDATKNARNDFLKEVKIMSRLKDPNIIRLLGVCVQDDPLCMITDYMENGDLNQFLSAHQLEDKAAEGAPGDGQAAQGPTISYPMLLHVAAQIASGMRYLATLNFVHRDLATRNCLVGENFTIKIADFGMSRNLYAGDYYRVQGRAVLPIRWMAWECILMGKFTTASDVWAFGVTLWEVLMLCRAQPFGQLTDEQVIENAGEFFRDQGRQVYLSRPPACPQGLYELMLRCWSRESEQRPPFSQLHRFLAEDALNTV
# T3 sequence (P42336 whole entry, canonical isoform): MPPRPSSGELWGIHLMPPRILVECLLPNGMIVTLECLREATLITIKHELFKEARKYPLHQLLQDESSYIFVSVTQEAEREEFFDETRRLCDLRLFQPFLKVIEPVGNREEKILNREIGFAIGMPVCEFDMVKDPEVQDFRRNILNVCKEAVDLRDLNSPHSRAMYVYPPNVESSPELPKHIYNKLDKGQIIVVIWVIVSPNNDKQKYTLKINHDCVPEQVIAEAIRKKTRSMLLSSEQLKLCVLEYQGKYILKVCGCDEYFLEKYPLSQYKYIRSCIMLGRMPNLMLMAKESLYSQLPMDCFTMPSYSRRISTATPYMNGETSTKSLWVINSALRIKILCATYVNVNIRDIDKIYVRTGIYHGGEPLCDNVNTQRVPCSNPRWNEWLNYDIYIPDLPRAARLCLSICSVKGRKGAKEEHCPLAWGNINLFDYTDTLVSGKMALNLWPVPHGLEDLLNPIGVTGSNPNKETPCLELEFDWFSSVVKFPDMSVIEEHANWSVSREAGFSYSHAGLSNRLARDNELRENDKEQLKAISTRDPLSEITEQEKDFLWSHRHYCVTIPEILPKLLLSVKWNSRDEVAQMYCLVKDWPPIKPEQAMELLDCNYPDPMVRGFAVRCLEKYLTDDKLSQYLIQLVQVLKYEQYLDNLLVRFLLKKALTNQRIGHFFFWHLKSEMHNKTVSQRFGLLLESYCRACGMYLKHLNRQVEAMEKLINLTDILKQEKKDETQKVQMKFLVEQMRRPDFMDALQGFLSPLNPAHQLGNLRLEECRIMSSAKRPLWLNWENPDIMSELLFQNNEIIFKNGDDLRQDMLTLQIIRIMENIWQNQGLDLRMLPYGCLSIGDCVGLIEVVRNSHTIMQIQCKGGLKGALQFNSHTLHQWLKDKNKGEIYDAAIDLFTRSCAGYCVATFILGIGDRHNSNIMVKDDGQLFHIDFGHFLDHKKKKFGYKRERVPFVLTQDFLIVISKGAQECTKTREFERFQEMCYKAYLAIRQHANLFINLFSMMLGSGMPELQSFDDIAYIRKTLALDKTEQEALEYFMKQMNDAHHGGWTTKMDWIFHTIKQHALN
# T4 sequence (P42338 whole entry, canonical isoform): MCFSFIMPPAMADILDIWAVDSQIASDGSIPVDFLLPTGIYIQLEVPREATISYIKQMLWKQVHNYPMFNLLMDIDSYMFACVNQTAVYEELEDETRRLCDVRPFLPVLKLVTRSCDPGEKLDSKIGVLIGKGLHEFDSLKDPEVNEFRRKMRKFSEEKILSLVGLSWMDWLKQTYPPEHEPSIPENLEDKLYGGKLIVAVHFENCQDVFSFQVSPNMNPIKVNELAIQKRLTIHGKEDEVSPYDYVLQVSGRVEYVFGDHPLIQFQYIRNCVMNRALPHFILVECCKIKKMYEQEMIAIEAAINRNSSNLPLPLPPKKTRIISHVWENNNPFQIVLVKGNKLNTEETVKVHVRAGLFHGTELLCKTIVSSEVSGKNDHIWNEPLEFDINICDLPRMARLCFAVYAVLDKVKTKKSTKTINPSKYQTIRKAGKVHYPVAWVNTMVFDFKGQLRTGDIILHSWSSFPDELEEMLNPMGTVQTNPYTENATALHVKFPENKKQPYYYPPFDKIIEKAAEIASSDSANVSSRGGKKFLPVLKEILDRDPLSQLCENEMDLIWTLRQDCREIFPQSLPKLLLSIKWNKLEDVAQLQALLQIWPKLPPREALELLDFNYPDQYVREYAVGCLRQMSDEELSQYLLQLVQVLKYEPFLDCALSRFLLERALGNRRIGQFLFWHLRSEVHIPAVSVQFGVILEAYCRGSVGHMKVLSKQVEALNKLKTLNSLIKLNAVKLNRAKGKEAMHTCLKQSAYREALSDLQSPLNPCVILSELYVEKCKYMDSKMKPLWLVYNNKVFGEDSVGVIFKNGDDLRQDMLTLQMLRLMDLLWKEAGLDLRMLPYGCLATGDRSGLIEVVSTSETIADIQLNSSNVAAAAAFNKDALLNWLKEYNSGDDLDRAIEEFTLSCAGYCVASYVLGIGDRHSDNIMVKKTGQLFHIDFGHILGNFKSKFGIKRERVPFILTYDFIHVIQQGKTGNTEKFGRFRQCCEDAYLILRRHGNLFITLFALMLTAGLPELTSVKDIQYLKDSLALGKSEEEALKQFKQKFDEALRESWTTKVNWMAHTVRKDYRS
# Chain of Tyrosine-protein kinase Fyn (P06241 whole entry): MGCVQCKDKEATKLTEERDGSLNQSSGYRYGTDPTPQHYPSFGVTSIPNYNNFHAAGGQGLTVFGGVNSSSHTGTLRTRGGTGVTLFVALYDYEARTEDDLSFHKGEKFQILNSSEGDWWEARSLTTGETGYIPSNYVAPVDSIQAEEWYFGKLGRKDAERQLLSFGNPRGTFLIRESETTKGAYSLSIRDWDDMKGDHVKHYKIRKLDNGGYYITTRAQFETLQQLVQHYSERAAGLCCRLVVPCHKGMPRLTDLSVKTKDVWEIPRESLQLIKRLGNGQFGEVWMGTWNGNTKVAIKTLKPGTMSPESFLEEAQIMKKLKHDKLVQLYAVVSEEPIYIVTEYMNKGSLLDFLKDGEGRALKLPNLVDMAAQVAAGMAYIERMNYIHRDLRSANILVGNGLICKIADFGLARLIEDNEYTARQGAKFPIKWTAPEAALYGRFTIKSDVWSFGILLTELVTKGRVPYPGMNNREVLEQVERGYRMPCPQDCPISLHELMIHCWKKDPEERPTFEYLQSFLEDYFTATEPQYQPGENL
compound,measurement,setting,value
CO[C@H]1C[C@@H]2CC[C@@H](C)[C@@](O)(O2)C(=O)C(=O)N2CCCC[C@H]2C(=O)O[C@H]([C@H](C)C[C@@H]2CC[C@@H](OCCO)[C@H](OC)C2)CC(=O)[C@H](C)/C=C(\C)[C@@H](O)[C@@H](OC)C(=O)[C@H](C)C[C@H](C)/C=C/C=C/C=C/1C [EVEROLIMUS],EC50,MCF7 [1],< 1 nM
same,viability at 1 µM,MCF7 [2],30%
COC(Cn1nc(-c2cnc3[nH]ccc3c2)c2c(N)ncnc21)OC,Activity,MCF7 [1],Active
Nc1nc2cc(-c3nn(CC4CCCC4)c4ncnc(N)c34)ccc2o1,IC50,[3],4.7 nM
same,IC50,[4],1.8 nM
same,IC50,[5],3.5 nM
same,IC50,[6],89 nM
same,IC50,[7],5 nM
same,IC50,[8],7.3 nM
same,IC50,[9],3 nM
same,EC50,MCF7 [1],1.7 nM
same,EC50,MDA-MB-231 [10],12 nM
same,EC50,[11],4 nM
same,Activity,MCF7 [12],Active
same,Activity,MDA-MB-231 [13],Active
same,Activity,[14],Active
CNC(=O)c1cccc(-c2ccc3c(N4CCOC[C@@H]4C)nc(N4CCOC[C@@H]4C)nc3n2)c1,Activity,MCF7 [1],Active
CCOC(Cn1nc(-c2ccc3oc(N)nc3c2)c2c(N)ncnc21)OCC,IC50,[3],2110 nM
same,IC50,[15],> 100000 nM
same,IC50,[16],> 100000 nM
same,IC50,[17],> 100000 nM
same,IC50,[18],> 100000 nM
same,IC50,[19],> 100000 nM
same,IC50,[20],> 100000 nM
same,IC50,[21],> 100000 nM
same,IC50,[22],> 100000 nM
same,IC50,[23],981 nM
same,IC50,[24],> 100000 nM
same,IC50,[25],1340 nM
same,IC50,[26],1840 nM
same,IC50,[5],981 nM
same,IC50,[6],> 100000 nM
same,IC50,[7],1340 nM
same,IC50,[8],1840 nM
same,IC50,[9],320 nM
same,EC50,MCF7 [1],8 nM
same,inhibition,[27],65%
same,inhibition,[28],99%
same,inhibition,[29],85%
same,inhibition,[30],90%
same,inhibition,[31],77%
same,EC50,MDA-MB-231 [10],72 nM
same,EC50,[11],37 nM
same,Activity,MCF7 [12],Active
same,Activity,MDA-MB-231 [13],Active
same,Activity,[14],Active
same,inhibition,mTORC1 (Homo sapiens) [32],Dose-dependent effect
same,inhibition,mTORC1 (Homo sapiens) [33],Dose-dependent effect
same,inhibition,MCF7 [34],Dose-dependent effect
same,inhibition,mTORC1 (Homo sapiens) [35],100%
same,inhibition,mTORC1 (Homo sapiens) [36],100%
same,inhibition,MCF7 [37],100%
Nc1nc2cc(-c3nn(CC=O)c4ncnc(N)c34)ccc2o1,Activity,MCF7 [38],inactive
